Assay type in all cases: in vivo, human
The test system of data set [1] is subjects with spinocerebellar ataxia (SCA). As to the kind of experiment: Same trial: Clinical Global Impression-Global Improvement (CGI-I). Here is the method: Clinical Global Impression-Global Improvement (CGI-I)
(§1) The study is a Phase IIb/III, multicenter, randomized, double-blind, 2-arm placebo-controlled parallel-group study designed to assess safety, tolerability, and efficacy signals in a population of patients with Spinocerebellar Ataxia (SCA). Subjects will be randomized to receive placebo (QD) or BHV-4157 (140 mg QD), stratified by diagnosis (genotype) and baseline severity (Gait Item of the SARA of ≤4 and >4). Subjects with SCA3 genotype will be limited to comprise up to approximately 10% of the total population so that this most common type of SCA is not over-represented.

Data set [2] has the same test system. As to the kind of experiment: Same trial: Patient Global Impression of Change (PGI-C).
Text: This is a patient self-reported global index scale that may be used to rate the response of a condition to a therapy.
(§2) Study Type: Interventional Study Design: Allocation: Randomized • Intervention Model: Parallel Assignment • Masking: Quadruple (Participant, Care Provider, Investigator, Outcomes Assessor) • Primary Purpose: Treatment • Official Title: A Phase IIb/III, Randomized, Double-blind, Placebo-controlled Trial of BHV-4157 in Adult Subjects With Spinocerebellar Ataxia Primary Outcome Measures: • To measure the change in total score on the Scale for Assessment and Rating of Ataxia (SARA) [Time Frame: The change in total score from baseline to week 8.] Secondary Outcome Measures: • To assess the safety and tolerability of BHV-4157 in subjects with SCA by measuring the frequency and severity of adverse events and discontinuations of adverse events. [Time Frame: Baseline to week 8.] Measured by the frequency and severity of adverse events and discontinuations of adverse events. • To compare efficacy of BHV-4157 with placebo on patient impression of benefit via use of the PGI-C [Time Frame: Baseline to Week 8] Change in PGI-C score
as §1

Data set [3] can be described thus: Tolerability in BHV4157-201 trial. The conditions noted are these: patients with SCA.
Text: as §2, with “Secondary Outcome Measures: • To assess the safety and tolerability of BHV-4157 in subjects with SCA by measuring the frequency and severity of adverse events and discontinuations of adverse events. [Time Frame: Baseline to week 8.]” left out, “Change in PGI-C score” left out
BHV4157-201 is an on-going Phase IIb/III, multicenter, randomized, double-blind, 2-arm placebo-controlled parallel-group study designed to assess safety, tolerability, and efficacy in a population of patients with Spinocerebellar Ataxia (SCA). […] The primary objective of the study is to compare the efficacy of troriluzole versus placebo on ataxia symptoms in patients with SCA as measured by the total score on the Scale for the Assessment and Rating of Ataxia (SARA). […]

Consider `CN(CC(=O)Nc1nc2ccc(OC(F)(F)F)cc2s1)C(=O)CNC(=O)CN` [BHV-4157, troriluzole], for which the “CGI Much Improved” value was found to be 14% in data set [1] (Lighter at EXP sites) and 27% in data set [1] (Lighter sample). Besides, the “CGI Any Improvement” value in data set [1] (Lighter at EXP sites, n = 15) was 60% (n = 15); in data set [1] (Lighter sample, n = 22), 64% (n = 22). In data set [2] (Lighter at EXP sites), the “PGI Better and Definite . . .” value is 19%. The “PGI Any Improvement” value in data set [2] (Lighter at EXP sites, n = 16) is listed as 45% (n = 16); in data set [2] (Lighter sample, n = 23), 34% (n = 23). The “PGI “Better and Definite Improvement that has made a real & worthwhile difference”” value in data set [2] (Lighter sample) is 17%. The tolerability profile entry in data set [3] is listed as “favorable”.
